From patent publication US8609674B2, “Potassium channel modulators” (AbbVie Inc., priority 2010, dated 2013)

Tests used:
Type in all cases: cell-based
human KCNQ5 = target: T1, human KCNQ5 (Homo sapiens, UniProt Q9NR82); test: KCNQ5 thallium influx FLIPR TETRA assay; details: for EC50: HEK293 cells stably expressing human KCNQ5, Tl+ influx; for Emax: maximum response relative to 10 μM retigabine (=100%), read-out: KCNQ5 Max. %
T1 construct: expressed in transfected cells; host or cells: HEK293
Experimental: (§1) The following example describes the assay that may be used to identify compounds that activate KCNQ4 or KCNQ5 channels.
(§2) The assays were performed using a FLIPR^TETRA (Molecular Devices, Sunnyvale, Calif.) in 384-well format. HEK293 cells stably expressing human KCNQ4 or KCNQ5 were seeded in 384-well, black-walled, clear-bottomed, poly-D-lysine coated plates (Greiner Bio-One, Germany) at a density of 1.5×10^4 cells per well, 24 hours before the assay. On the assay day, BTC-AM dye was loaded into the cells by replacing the cell culture medium with 30 μL/well of 2.8 μM dye in DPBS. Dye loading was allowed to proceed for 2 hours at room temperature and then cells were washed once in 30 μL/well of assay buffer (in mM: 10 HEPES pH 7.3, 5 glucose, 140 Na-gluconate, 2.5 K-gluconate, 3.6 Ca-gluconate, 2 MgSO4, 0.1 Ouabain) to remove unloaded dye. Cells were incubated in 30 μL of assay buffer before loading onto a FLIPR^TETRA system. Compounds to be assayed were added to the cells as 4× of final concentration in 15 μL of assay buffer and incubated for 4 minutes at room temperature. The influx signal was initiated by adding 15 μL of assay buffer containing 4.2 mM TlNO3 and 7 mM K2SO4. Tl^+ influx signals were recorded for 3 minutes. Tl^+ influx signal was quantified as light unit changes after Tl^+ addition using the “SUM” statistic from the FLIPR^TETRA software. Sums of the responses over basal responses were plotted versus concentrations of test compounds to obtain an EC50 value and the points fit with a nonlinear regression curve using GraphPad Prism software (GraphPad Software Inc., San Diego, Calif.). EC50 values were calculated from the resulting sigmoidal dose-response curves. The maximum response for each test compound was determined relative to the response produced by 10 μM retigabine. The maximum response of retigabine at 10 μM was set at 100%.

human KCNQ4 = target: T2, human KCNQ4 (Homo sapiens, UniProt P56696); test: KCNQ4 thallium influx FLIPR TETRA assay; details: for EC50: HEK293 cells stably expressing human KCNQ4, Tl+ influx; for Emax: maximum response relative to 10 μM retigabine (=100%), read-out: KCNQ4 Max. %
T2 construct: expressed in transfected cells; host or cells: HEK293
Experimental: as §1, §2

[1] = target: T3, human KCNQ2 and KCNQ3 subunits (KCNQ2/3 channels) (Homo sapiens, UniProt O43525+O43526); test: KCNQ2/3 thallium influx FLIPR assay (BTC-AM dye); details: for EC50: HEK293 cells stably expressing human KCNQ2 and KCNQ3, Tl+ influx; for Emax: maximum response relative to 10 μM retigabine (=100%), read-out: KCNQ2/3 Max. %
T3 construct: expressed in transfected cells; host or cells: HEK293
Experimental: The following example describes the assay that may be used to identify compounds that activate KCNQ2/3 channels.
HEK293 cells stably expressing human KCNQ2 and KCNQ3 subunits were seeded in 96-well, black-walled, clear-bottomed, poly-D-lysine coated plates (BD Biosciences, Bedford, Mass.) at a density of 1×10^5 cells per well 24 hours before the assay. On the assay day, BTC-AM dye (Invitrogen, Carlsbad, Calif.) was loaded into the cells by replacing the cell culture medium with 55 μL/well of 3 μg/ml dye in Dulbecco's Phosphate Buffered Saline (DPBS) (Invitrogen). Dye loading was allowed to proceed for 2 hours at room temperature and then cells were washed twice with 50 μL/well of assay buffer (in mM: 10 HEPES pH 7.3, 5 glucose, 140 Na-gluconate, 2.5 K-gluconate, 3.6 Ca-gluconate, 2 MgSO4, 0.1 Ouabain) to remove unloaded dye. Cells were incubated in 50 μL of assay buffer before loading onto a FLIPR system (Molecular Devices, Sunnyvale, Calif.). Various concentrations of compounds to be assayed were added to the cells in 50 μL of assay buffer and incubated for 4 minutes. The fluorescence signal was initiated by adding 100 μL of assay buffer containing 6 mM TlNO3 and 10 mM K2SO4. Fluors were excited using the 488-nm line of an argon laser and emission was filtered using a 540±30 nm bandpass filter. Fluorescent signals were recorded for 3 minutes. Sums of the responses over basal responses were plotted versus concentrations of test compounds to obtain an EC50 value and the points fit with a nonlinear regression curve using GraphPad Prism software (GraphPad Software Inc., San Diego, Calif.). EC50 values were calculated from the resulting sigmoidal dose-response curves. The maximum response for each test compound was determined relative to the response produced by 10 μM retigabine. The maximum response of retigabine at 10 μM was set at 100%.

In the case of `CC(C)c1nc2ccccc2c(=O)n1NC(=O)CSC[C@@H]1CC[C@H]2C[C@@H]1C2(C)C` [Example 12, 2-({[(1S,2R,5S)-6,6-dimethylbicyclo[3.1.1]hept-2-yl]methyl}sulfanyl)-N-[4-oxo-2-(propan-2-yl)quinazolin-3(4H)-yl]acetamide], the EC50 (human KCNQ5) is reported as > 30 µM, the Emax (human KCNQ5) is reported as 136% and the EC50 (human KCNQ4) is reported as > 30 µM. For the same compound, the Emax (human KCNQ4) was 41%, the EC50 [1] was 0.1 to 0.5 µM and the Emax [1] was 149%.
For `CC(C)c1nc2ccc(F)cc2c(=O)n1NC(=O)C[C@@H]1CC[C@H]2C[C@@H]1C2(C)C` [Example 13, 2-[(1S,2S,5S)-6,6-dimethylbicyclo[3.1.1]hept-2-yl]-N-[6-fluoro-4-oxo-2-(propan-2-yl)quinazolin-3(4H)-yl]acetamide], the EC50 (human KCNQ5) was > 30 µM, the Emax (human KCNQ5) was 21% and the EC50 (human KCNQ4) was > 30 µM. The Emax (human KCNQ4) was 8%, the EC50 [1] was < 0.1 µM and the Emax [1] was 73%.
In the case of `CC1(C)[C@H]2CC[C@@H](CC(=O)Nn3cnc4ccccc4c3=O)[C@@H]1C2` [Example 16, 2-[(1S,2S,5S)-6,6-dimethylbicyclo[3.1.1]hept-2-yl]-N-(4-oxoquinazolin-3(4H)-yl)acetamide], the EC50 (human KCNQ5) is reported as > 30 µM, the Emax (human KCNQ5) is reported as 13% and the EC50 (human KCNQ4) is reported as > 30 µM. It also gave an Emax (human KCNQ4) of 6%, an EC50 [1] of 1 to 10 µM and an Emax [1] of 144%.
In the case of `CC(C)c1nc2ccccc2c(=O)n1NC(=O)C[C@@H]1[C@H](F)C[C@H]2C[C@@H]1C2(C)C` [Example 24, 2-[(1S,2S,3R,5R)-3-fluoro-6,6-dimethylbicyclo[3.1.1]hept-2-yl]-N-[4-oxo-2-(propan-2-yl)quinazolin-3(4H)-yl]acetamide], the EC50 (human KCNQ5) is reported as > 30 µM, the Emax (human KCNQ5) is reported as 88% and the EC50 (human KCNQ4) is reported as > 30 µM. The Emax (human KCNQ4) was -43%, the EC50 [1] was < 0.1 µM and the Emax [1] was 25%.
In the case of `CC(C)c1nc2ccccc2c(=O)n1NC(=O)C[C@@H]1C[C@@H]2C[C@H](C1)C2(C)C` [Example 25, 2-[(1R,3s,5S)-6,6-dimethylbicyclo[3.1.1]hept-3-yl]-N-[4-oxo-2-(propan-2-yl)quinazolin-3(4H)-yl]acetamide], the EC50 (human KCNQ5) is reported as > 30 µM, the Emax (human KCNQ5) is reported as 15% and the EC50 (human KCNQ4) is reported as > 30 µM. For the same compound, the Emax (human KCNQ4) was -23%, the EC50 [1] was 0.1 to 0.5 µM and the Emax [1] was 93%.
In the case of `CCN(CC)c1nc2ccccc2c(=O)n1NC(=O)C[C@@H]1CC[C@H]2C[C@@H]1C2(C)C` [Example 19, N-[2-(diethylamino)-4-oxoquinazolin-3(4H)-yl]-2-[(1S,2S,5S)-6,6-dimethylbicyclo[3.1.1]hept-2-yl]acetamide], the EC50 (human KCNQ5) is reported as > 30 µM, the Emax (human KCNQ5) is reported as 5% and the EC50 (human KCNQ4) is reported as > 30 µM. The Emax (human KCNQ4) was 8%, the EC50 [1] was 0.1 to 0.5 µM and the Emax [1] was 28%.
`CC1(C)[C@H]2CC[C@@H](CC(=O)Nn3c(CC(F)(F)F)nc4ccccc4c3=O)[C@@H]1C2` [Example 14, 2-[(1S,2S,5S)-6,6-dimethylbicyclo[3.1.1]hept-2-yl]-N-[4-oxo-2-(2,2,2-trifluoroethyl)quinazolin-3(4H)-yl]acetamide] was tested, and the EC50 (human KCNQ5) was > 30 µM, the Emax (human KCNQ5) was -10% and the EC50 (human KCNQ4) was > 30 µM. For the same compound, the Emax (human KCNQ4) was 27%, the EC50 [1] was < 0.1 µM and the Emax [1] was 105%.
With `CC(C)c1nc2ccccc2c(=O)n1NC(=O)C[C@H]1CC[C@H]2C[C@@H]1C2(C)C` [Example 21, 2-[(1S,2R,5S)-6,6-dimethylbicyclo[3.1.1]hept-2-yl]-N-[4-oxo-2-(propan-2-yl)quinazolin-3(4H)-yl]acetamide] the EC50 (human KCNQ5) was > 30 µM, the Emax (human KCNQ5) was 14% and the EC50 (human KCNQ4) was 0.5 to 1 µM. The Emax (human KCNQ4) was 25%, the EC50 [1] was 0.5 to 1 µM and the Emax [1] was 121%.
